Measurements taken from publication PMC10385824, “Antiproliferative and Tubulin-Destabilising Effects of 3-(Prop-1-en-2-yl)azetidin-2-Ones and Related Compounds in MCF-7 and MDA-MB-231 Breast Cancer Cells” (Pharmaceuticals, 2023).
Where two headings read alike, the source gives them in different places. Each block holds one molecule with its values, some of them ahead of it.

Tested on: MCF-7 human breast cancer cells
Experiment: cells
[1] = MCF7, read-out: Antiproliferative Activity IC50, MCF-7, eight concentrations 0.001–50 μM, mean ± SEM, Table 4
[2] = MCF7, 72 h, read-out: Antiproliferative Activity IC50, MCF-7, 72 h, eight concentrations (0.001–50 mM [sic]), mean ± SEM, Table 5
[3] = MCF7, read-out: Antiproliferative Activity IC50, MCF-7, eight concentrations 0.001–50 μM, mean ± SEM, Table 3
[4] = MCF7, 72 h, MCF-7, Figure 2, 72 h
[5] = MCF7, read-out: Antiproliferative Activity IC50

Structure (SMILES): C=CCC1C(=O)N(c2ccccc2)C1c1ccc(OC)cc1 (stereo not shown) [10s, 3-Allyl-4-(4-Methoxyphenyl)-1-phenylazetidin-2-one]
IC50 [3]: 84.5 ± 8.1 µM

Structure (SMILES): C=CCC1C(=O)N(c2cc(OC)c(OC)c(OC)c2)C1c1ccc(Br)cc1 (stereo not shown) [10c, 3-Allyl-4-(4-bromophenyl)-1-(3,4,5-trimethoxyphenyl)azetidin-2-one]
IC50 [3]: 0.944 ± 0.1 µM

Structure (SMILES): C=C(C)C1C(=O)N(c2cc(OC)c(OC)c(OC)c2)C1c1cccc2ccccc12 (stereo not shown) [9m, 4-Naphthalen-1-yl-1-(3,4,5-trimethoxyphenyl)-3-(prop-1-en-2-yl)azetidin-2-one]
IC50 [4]: 8.07 µM
IC50 (MCF7, 72 h, read-out: Antiproliferative Activity IC50, MCF-7, 72 h, eight concentrations 1–50 μM, mean ± SEM, Table 2): 44.1 ± 2.57 µM

Structure (SMILES): C=CCC1C(=O)N(c2cc(OC)c(OC)c(OC)c2)C1c1ccc(OCC)cc1 (stereo not shown) [10i, 3-Allyl-4-(4-ethoxyphenyl)-1-(3,4,5-trimethoxyphenyl)azetidin-2-one]
IC50 [3]: 0.091 ± 0.01 µM

Structure (SMILES): C=CCC1C(=O)N(c2cc(OC)c(OC)c(OC)c2)C1c1ccc(Oc2ccccc2)cc1 (stereo not shown) [10k, 3-Allyl-4-(4-phenoxyphenyl)-1-(3,4,5-trimethoxyphenyl)azetidin-2-one]
IC50 [3]: 7.49 ± 0.6 µM

Structure (SMILES): C=CCC1C(=O)N(c2cc(OC)c(OC)c(OC)c2)C1c1ccc(OCCCC)cc1 (stereo not shown) [10j, 3-Allyl-4-(4-butoxyphenyl)-1-(3,4,5-trimethoxyphenyl)azetidin-2-one]
IC50 [3]: 17.4 ± 1.23 µM

Structure (SMILES): COc1cc(N2C(=O)C(CC3CO3)C2c2ccccc2)cc(OC)c1OC (stereo not shown) [compound 20, 1-(3,4,5-Trimethoxyphenyl)-3-((oxiran-2-yl)methyl)-4-phenylazetidin-2-one]
IC50 [2]: 51.5 ± 5.46 µM

Structure (SMILES): C=CCC1C(=O)N(c2cc(OC)c(OC)c(OC)c2)C1c1ccc(Cl)cc1 (stereo not shown) [10b, 3-Allyl-4-(4-chlorophenyl)-1-(3,4,5-trimethoxyphenyl)azetidin-2-one]
IC50 [3]: 0.621 ± 0.095 µM

Structure (SMILES): CCCC1C(=O)N(c2cc(OC)c(OC)c(OC)c2)C1c1ccc(OC)c(OP(=O)(O)O)c1 (stereo not shown) [15d, 2-Methoxy-5-(1-(3,4,5-trimethoxyphenyl)-4-oxo-3-propylazetidin-2-yl)phenyl dihydrogen phosphate]
IC50 [5]: 0.032 ± 0.005 µM

Structure (SMILES): C=CCC1C(=O)N(c2cc(OC)c(OC)c(OC)c2)C1c1ccc2ccccc2c1 (stereo not shown) [10n, 3-Allyl-4-naphthalen-2-yl-1-(3,4,5-trimethoxyphenyl)azetidin-2-one]
IC50 [3]: 0.318 ± 0.03 µM

Structure (SMILES): C=CCC1C(=O)N(c2cc(OC)c(OC)c(OC)c2)C1c1ccc(N(C)C)cc1 (stereo not shown) [10e, 3-Allyl-4-(4-dimethylaminophenyl)-1-(3,4,5-trimethoxyphenyl)azetidin-2-one]
IC50 [3]: 4.46 ± 0.11 µM

Structure (SMILES): COc1ccc(C2C(C=Cc3ccc(C(F)(F)F)cc3)C(=O)N2c2cc(OC)c(OC)c(OC)c2)cc1 (stereo not shown) [compound 19, 3-(4-(Trifluoromethyl)styryl)-1-(3,4,5-trimethoxyphenyl)-4-(4-methoxyphenyl)azetidin-2-one]
IC50 [2]: 7.71 ± 0.78 µM

Structure (SMILES): C=CCC1C(=O)N(c2cc(OC)c(OC)c(OC)c2)C1c1ccc(OC)c(OP(=O)(O)O)c1 (stereo not shown) [15c, 5-(3-Allyl-1-(3,4,5-trimethoxyphenyl)-4-oxoazetidin-2-yl)-2-methoxyphenyl dihydrogen phosphate]
IC50 [5]: 0.094 ± 0.015 µM

Structure (SMILES): C=CCC1C(=O)N(c2cc(OC)c(OC)c(OC)c2)C1c1ccc([N+](=O)[O-])cc1 (stereo not shown) [10a, 3-Allyl-4-(4-nitrophenyl)-1-(3,4,5-trimethoxyphenyl)azetidin-2-one]
IC50 [3]: 4.13 ± 0.62 µM

Structure (SMILES): C=C(C)C1C(=O)N(c2cc(OC)c(OC)c(OC)c2)C1c1ccc(OC)c([N+](=O)[O-])c1 (stereo not shown) [9r, 4-(4-Methoxy-3-nitrophenyl)-1-(3,4,5-trimethoxyphenyl)-3-(prop-1-en-2-yl)azetidin-2-one]
IC50 (MCF7): 0.01 to 0.033 µM

Structure (SMILES): C=CCC1C(=O)N(c2cc(OC)c(OC)c(OC)c2)C1c1ccccc1 (stereo not shown) [10f, 3-Allyl-4-phenyl-1-(3,4,5-trimethoxyphenyl)azetidin-2-one]
IC50 [3]: 9.61 ± 1.2 µM

Structure (SMILES): C=C/C=C/C1C(=O)N(c2cc(OC)c(OC)c(OC)c2)C1c1ccc(OCCCC)cc1 (stereo not shown) [11j, (E)-3-(Buta-1,3-dien-1-yl)-4-(4-butoxyphenyl)-1-(3,4,5-trimethoxyphenyl)-azetidin-2-one]
IC50 [1]: 182 ± 19.4 µM

Further lines, results first:

IC50 [1]: 24.2 ± 3.91 µM
Structure (SMILES): C=C/C=C/C1C(=O)N(c2cc(OC)c(OC)c(OC)c2)C1c1ccc(OC)c(NC(=O)C(N)C(C)C)c1 (stereo not shown) [13d, 2-Amino-N-(5-(3-((E)-buta-1,3-dienyl)-1-(3,4,5-trimethoxyphenyl)-4-oxoazetidin-2-yl)-2-methoxyphenyl)-3-methylbutanamide]

IC50 [2]: 75.4 ± 8.12 µM
Structure (SMILES): O=C1C(CC=Cc2ccccc2)C(c2ccccc2)N1c1ccccc1 (stereo not shown) [17c, 3-Cinnamyl-1,4-diphenylazetidin-2-one]

IC50 [2]: 0.075 ± 0.01 µM
Structure (SMILES): CCOC(=O)CC1C(=O)N(c2cc(OC)c(OC)c(OC)c2)C1c1ccc(OC)c(O)c1 (stereo not shown) [17g, Ethyl-2-(2-(3-hydroxy-4-methoxyphenyl)-1-(3,4,5-trimethoxyphenyl)-4-oxoazetidin-3-yl)acetate]

IC50 [2]: 1.09 ± 0.08 µM
Structure (SMILES): COc1ccc(C2C(CC=Cc3ccccc3)C(=O)N2c2cc(OC)c(OC)c(OC)c2)cc1O (stereo not shown) [17b, 3-Cinnamyl-4-(3-hydroxy-4-methoxyphenyl)-1-(3,4,5-trimethoxyphenyl)azetidin-2-one]

IC50 [2]: 4.76 ± 0.56 µM
Structure (SMILES): COc1ccc(C2C(CC=Cc3ccc(C(F)(F)F)cc3)C(=O)N2c2ccccc2)cc1 (stereo not shown) [17e, 3-(4-(Trifluoromethyl)cinnamyl)-4-(4-methoxyphenyl)-1-phenylazetidin-2-one]

IC50 [4]: 4.92 µM
Structure (SMILES): C=C(C)C1C(=O)N(c2cc(OC)c(OC)c(OC)c2)C1c1ccc(OC)c(NC(=O)C(N)Cc2ccccc2)c1 (stereo not shown) [13a, 2-Amino-N-(2-methoxy-5-(1-(3,4,5-trimethoxyphenyl)-4-oxo-3-(prop-1-en-2-yl)azetidin-2-yl)phenyl)-3-phenylpropanamide]

IC50 [1]: 0.296 ± 0.05 µM
Structure (SMILES): C=C/C=C/C1C(=O)N(c2cc(OC)c(OC)c(OC)c2)C1c1ccc2ccccc2c1 (stereo not shown) [11n, (E)-3-(Buta-1,3-dien-1-yl)-4-(naphthalen-2-yl)-1-(3,4,5-trimethoxyphenyl)azetidin-2-one]

IC50 [3]: 13 ± 1.25 µM
Structure (SMILES): C=CCC1C(=O)N(c2cc(OC)c(OC)c(OC)c2)C1c1ccc(OC)c(NC(=O)C(N)C(C)C)c1 (stereo not shown) [13c, N-(5-(3-Allyl-1-(3,4,5-trimethoxyphenyl)-4-oxoazetidin-2-yl)-2-methoxyphenyl)-2-amino-3-methylbutanamide]

IC50 [2]: 49.5 ± 5.23 µM
Structure (SMILES): COc1ccc(C2C(CC=Cc3ccc(C(F)(F)F)cc3)C(=O)N2c2cc(OC)c(OC)c(OC)c2)cc1 (stereo not shown) [17d, 3-(4-(Trifluoromethyl)cinnamyl)-4-(4-methoxyphenyl)-1-(3,4,5-trimethoxyphenyl) azetidin-2-one]

IC50 [3]: 10.7 ± 1.94 µM
Structure (SMILES): C=CCC1C(=O)N(c2cc(OC)c(OC)c(OC)c2)C1c1ccc(OC)c(NC(=O)C(N)Cc2ccccc2)c1 (stereo not shown) [13b, N-(5-(3-Allyl-1-(3,4,5-trimethoxyphenyl)-4-oxoazetidin-2-yl)-2-methoxyphenyl)-2-amino-3-phenylpropanamide]

IC50 [1]: 1.93 ± 0.34 µM
Structure (SMILES): C=C/C=C/C1C(=O)N(c2cc(OC)c(OC)c(OC)c2)C1c1ccc(N(C)C)cc1 (stereo not shown) [11e, (E)-3-(Buta-1,3-dien-1-yl)-4-(4-dimethylaminophenyl)-1-(3,4,5-trimethoxyphenyl)azetidin-2-one]

IC50 [1]: 15.2 ± 1.41 µM
Structure (SMILES): C=C/C=C/C1C(=O)N(c2ccccc2)C1c1ccc(OC)cc1 (stereo not shown) [11s, (E)-3-(Buta-1,3-dien-1-yl)-4-(4-methoxyphenyl)-1-phenylazetidin-2-one]

IC50 [1]: 145 ± 11.7 µM
Structure (SMILES): C=C/C=C/C1C(=O)N(c2cc(OC)c(OC)c(OC)c2)C1c1ccc(OCc2ccccc2)cc1 (stereo not shown) [11l, (E)-3-(Buta-1,3-dien-1-yl)-4-(4-benzyloxyphenyl)-1-(3,4,5-trimethoxyphenyl)azetidin-2-one]
